Results reported in patent US11879140B2, “P21 mRNA targeting DNAzymes” (1E Therapeutics Ltd., priority 2020, dated 2024).
“Also recorded” adds a separate entry of the source.

Assays:
p21 protein [1] = experiment: p21 protein in HepG2 cell lysate (IF and ELISA); assay type: cell-based, human; settings: Etoposide alone or with scramble or DNAzyme 1670 (FIGS. 15B-C)
Procedure: p21 protein quantification was analyzed using (Human p21 ELISA Kit—ab214658, Abcam), according to the manufacturer's instructions. The cell pellets were incubated with Cell Extraction Buffer PTR on ice for 20 minutes. Following Centrifuge at 18,000×g for 20 minutes, the sample protein concentrations were quantified using a BCA protein assay. The samples and Antibody Cocktail were added to appropriate wells and incubated for one hour at room temperature (RT), followed by three washes with Wash Buffer and incubation with TMB Development Solution for 15 minutes at RT. Then, the Stop Solution was added, the samples were incubated for 1 minute, and the samples were read by absorbance at 450 nm using plate reader.

[2] = DNAzyme stability analysis in serum; assay type: in vitro ADME
Procedure: DNAzyme stability was assessed by incubation with PBS, plasma and BALF (Bronchoalveolar Lavage Fluid). A comparison between unmodified and 3′Inverted dT modification was made. Following incubation for the indicated time points, samples were analyzed using gel electrophoresis. Quantification compared to time 0 was performed using Image Lab software (Bio Rad).

p21 mRNA = experiment: Quantitative RT-PCR of p21 mRNA in senescent cells; assay type: cell-based, human; settings: over 24 hours following treatment, 2000 nM (FIG. 5D)
Procedure: Total RNA was extracted from IMR-90 cells using NucleoSpin® RNA (Macherey-Nagel™), according to the manufacturer protocol. Complementary DNA was prepared using the M-MLV Reverse Transcriptase (Promega), according to the manufacturer protocol. Quantitative real-time PCR was performed using the SYBR Green PCR master-mix (Applied Biosystems) on a CFX96 Real-Time PCR System (Bio Rad). See primer sequences in Table 1, above.

p21 protein [3] = experiment: Immunofluorescence of p21 protein in senescent cells; assay type: cell-based, human; settings: 48 hour treatment, 1000 nM, compared to control scramble (FIG. 5G)
Procedure: 48 hours following transfection. IMR-90 cells were fixed by PFA 4% following the indicated treatments. Cells were blocked and incubated with antibodies against human p21 (CST) in blocking solution. Cells were then incubated with Dylight-549-conjugated secondary antibody (Jackson ImmunoResearch) and counterstained with DAPI (Sigma). Images were acquired using Nikon Eclipse Ti2 microscope at ×10 magnification.
Alternatively, cells were fixed with 4% Formaldehyde for 15 minutes, permeabilized in 0.2% […] for 5 minutes and blocked with 2% bovine serum albumin (BSA) for 30 min in room temperature. Cells were then incubated with a primary or with a conjugated antibody over-night or for 3 hours respectively. For unconjugated antibodies, a corresponding fluorescently-labelled secondary antibody was added for 1 hour, followed by Hoechst counterstaining. Cells were washed with PBS three times following each step. Images were acquired using Nikon Eclipse Ti2 microscope at ×10 magnification.
Antibodies were diluted in blocking solution as indicated below: 53BP1 antibody (Novus biologicals NB100-304, 1:800), Phospho-histone H2AX antibody (Cell signaling #2577, 1:800), p21 Waf1/Cip1 antibody (Cell signaling #8865, 1:500), p16 antibody (Santa Cruz sc-56330, 1:200), Alexa Fluor-488 goat anti mouse (Thermo Fisher A11029, 1:1000).

HepG2 cells = experiment: Chemotherapy and DNAzyme combination, HepG2; assay type: cell-based
Text: (§1) PANC-1 cells were maintained in DMEM medium supplemented with 10% fetal bovine serum, 1% penicillin-streptomycin and 1% sodium pyruvate. HCT116 cells were maintained in McCoy's 5A medium supplemented with 10% fetal bovine serum and 1% penicillin-streptomycin. A549 cells were maintained in F-12K Medium supplemented with 10% fetal bovine serum and 1% penicillin-streptomycin. HepG2 cell were maintained Eagle's Minimum Essential Medium, supplemented in 10% fetal bovine serum, 1% penicillin-streptomycin and 1% sodium pyruvate. All cancer cell lines were incubated in 5% C02 at 37° C.
(§2) Cancer cell lines were seeded in 96 well plates 24 hours before treatment. Chemotherapies were applied at indicated concentrations either alone or as combination with DNAzyme-lipofectamine complex. 72 hours following treatment, cell viability was measured using Prestoblue® reagent. Chemotherapies were diluted in cell medium to the indicated concentrations. 24 hours following seeding, culture medium was replaced with chemotherapy containing medium, immediately followed by transfection of DNAzyme as described above. 72 hours following treatment, cell viability was measured using Prestoblue® reagent.
The following chemotherapies were used: Etoposide (Sigma), Palbociclib (Sigma), Doxorubicin (Sigma), Cisplatin (Sigma), ABT-263 (Selleckchem). All compounds were dissolved and stored according to manufacturer instructions.

cancer cells (A549) = experiment: Dose response on A549 cancer cells; assay type: cell-based; settings: A549, scramble versus DNAzyme 1670 (FIG. 16B)
Text: as §1, §2

In the case of “DNAzyme 1670: SEQ ID NO: 54: GGGAAAGGAggctagctacaacgaAAGGGGGAG (DNA GGGAAAGGAGGCTAGCTACAACGAAAGGGGGAG; DNA, backbone and methylation of C not given here)”, the “p21 protein in cell lysate” value (p21 protein [1]) is reported as “can counteract the upregulation in p21 levels”, the “time to complete degradation in serum” value ([2]; unmodified DNAzyme, from the start of incubation (FIG. 13A)) is reported as 48 h and the “time to degradation in serum” value ([2]; with 3′ inverted dT modification versus unmodified (FIG. 13B)) is reported as “significantly increased”. For the same substance, the “p21 mRNA knockdown” value (p21 mRNA) was 57%, the p21 protein levels (p21 protein [3]) was “significantly reduced” and the “sub-clinical doses of various chemotherapies in combination with DNAzyme, synergy” value (HepG2 cells; HepG2 (FIG. 12G)) was “synergistic activity”. The “combination treatment of Etoposide and DNAzyme, synergy” value (HepG2 cells; liver cancer cell line HepG2 (FIG. 12F)) was “good synergistic results” and the “senolytic effect, dose response” value (cancer cells (A549)) was “senolytic effect in a wide range of doses; also recorded: effective at much lower concentration”.
